Measurements published in PubChem BioAssay (NCI).
“And” between values parts separate entries of the source, which are not always exact repeats. Equal values may be shown once.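 Step 1: Grow cells in 96-well plates. Step 2: Expose to compound for 48 hours at 5 concentrations. Step 3: Interpolate endpoints linearly; if unreached, use highest concentration. Abbreviation: GI50, concentration required for 50% inhibition of growth. Definition used: TGI = concentration required for complete inhibition of growth.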

Each compound was assayed on KM12 colon (assay: NCI anticancer screen, dose series, 48 h).
`COc1ccc2c(c1)C(C)Cc1c(Cl)ncnc1N2C` (centres undefined) was tested, and the GI50 was 298 nM and the TGI was 1.37 µM. In the case of `COCCOc1cc(F)c2c(Nc3ccc(NC(=O)Cn4cc(C(C)C)nn4)cc3)ncnc2c1`, the GI50 is reported as 1160 nM and the TGI is reported as > 100 µM. In the case of `C#Cc1cccc(Nc2ncnc3cc(OC)c(OCCCCCCC(=O)NO)cc23)c1`, the GI50 is reported as 197 nM and the TGI is reported as 3.46 µM. With `Cc1nnc(S(=O)(=O)c2ccc(N=Nc3c(N)nc(N)nc3N)cc2)s1` the TGI was > 100 µM. For `O=c1n(CC2CO2)c(=O)n(CC2CO2)c(=O)n1CC1CO1` (centres undefined), the GI50 was 21300 nM and the TGI was 112 µM and > 100 µM. `Cc1ccc(C(SCC(N)C(=O)O)(c2ccccc2)c2ccc(C)cc2)cc1` (centres undefined) was tested, and the GI50 was 219 nM and the TGI was 12.8 µM. Compound `COc1cc(Nc2cn[nH]c2-c2ccc(Cl)cc2)cc(OC)c1OC` has a GI50 of 2830 nM and a TGI of 16.4 µM. `O=C(c1ccccc1)c1cc(Cl)ccc1OCCCCN1CCN(CCCCOc2ccc(Cl)cc2C(=O)c2ccccc2)CC1` showed a GI50 of 2090 nM and a TGI of 4.55 µM. Work on `CNCCNc1c2c(c(NCCNC)c3c(CN(C)C)c[nH]c13)C(=O)c1ccccc1C2=O` yielded a GI50 of 2800 nM and a TGI of 9.5 µM. With `CC1OC2CC(=O)OC2C2=C1C(=O)c1c(O)cccc1C2=O` (centres undefined) the GI50 was 176 nM and the TGI was 0.392 µM. `Oc1ccc(Cl)cc1Cc1cc(Cl)cc(Cl)c1O` gave a GI50 of 4340 nM and a TGI of 19.8 µM. Work on `C=C(C=O)C1CCC2(C(=O)O)CCC3(C)C(CCC4C5(C)CCC(O)C(C)(C)C5CCC43C)C12` (centres undefined) yielded a GI50 of 1610 nM and a TGI of 3.39 µM. `COc1ccc(N2C(=O)C(c3ccccc3)(c3ccccc3)C23C(=O)N(C)c2ccccc23)cc1` (centres undefined) was tested, and the GI50 was > 100000 nM and the TGI was > 100 µM. For `O=c1c2ccccc2[se]n1-c1cccnc1`, the TGI was > 100 µM.

Each compound was assayed on MCF7 breast (assay: NCI anticancer screen, dose series, 48 h).
`COc1ccc2c(c1)C(C)Cc1c(Cl)ncnc1N2C` (centres undefined) was tested, and the GI50 was 328 nM and the TGI was > 21.9 µM. For `COCCOc1cc(F)c2c(Nc3ccc(NC(=O)Cn4cc(C(C)C)nn4)cc3)ncnc2c1`, the GI50 was > 100000 nM and the TGI was > 100 µM. `C#Cc1cccc(Nc2ncnc3cc(OC)c(OCCCCCCC(=O)NO)cc23)c1` gave a GI50 of 190 nM and a TGI of 3.5 µM. For `Cc1nnc(S(=O)(=O)c2ccc(N=Nc3c(N)nc(N)nc3N)cc2)s1`, the TGI was > 100 µM. With `O=c1n(CC2CO2)c(=O)n(CC2CO2)c(=O)n1CC1CO1` (centres undefined) the GI50 was 3900 nM and 1890 nM and the TGI was 85.7 µM and > 100 µM. Compound `Cc1ccc(C(SCC(N)C(=O)O)(c2ccccc2)c2ccc(C)cc2)cc1` (centres undefined) has a GI50 of 52.4 nM and a TGI of 15.4 µM. In the case of `COc1cc(Nc2cn[nH]c2-c2ccc(Cl)cc2)cc(OC)c1OC`, the GI50 is reported as 3300 nM and the TGI is reported as 53.2 µM. `O=C(c1ccccc1)c1cc(Cl)ccc1OCCCCN1CCN(CCCCOc2ccc(Cl)cc2C(=O)c2ccccc2)CC1` gave a GI50 of 1980 nM and a TGI of 4.83 µM. `CNCCNc1c2c(c(NCCNC)c3c(CN(C)C)c[nH]c13)C(=O)c1ccccc1C2=O` gave a GI50 of 922 nM and a TGI of 6.7 µM. `CC1OC2CC(=O)OC2C2=C1C(=O)c1c(O)cccc1C2=O` (centres undefined) was tested, and the GI50 was 18.3 nM and the TGI was 0.0581 µM. `Oc1ccc(Cl)cc1Cc1cc(Cl)cc(Cl)c1O` gave a GI50 of 3510 nM and a TGI of 20.3 µM. `C=C(C=O)C1CCC2(C(=O)O)CCC3(C)C(CCC4C5(C)CCC(O)C(C)(C)C5CCC43C)C12` (centres undefined) gave a GI50 of 2760 nM and a TGI of 14.3 µM. In the case of `COc1ccc(N2C(=O)C(c3ccccc3)(c3ccccc3)C23C(=O)N(C)c2ccccc23)cc1` (centres undefined), the GI50 is reported as > 100000 nM and the TGI is reported as > 100 µM. `O=c1c2ccccc2[se]n1-c1cccnc1` gave a TGI of 80.6 µM.

Each compound was assayed on HCT-15 colon (assay: NCI anticancer screen, dose series, 48 h).
For `COc1ccc2c(c1)C(C)Cc1c(Cl)ncnc1N2C` (centres undefined), the GI50 was 0.402 µM and the TGI was > 32.3 µM. With `COCCOc1cc(F)c2c(Nc3ccc(NC(=O)Cn4cc(C(C)C)nn4)cc3)ncnc2c1` the GI50 was > 100 µM and the TGI was > 100 µM. For `C#Cc1cccc(Nc2ncnc3cc(OC)c(OCCCCCCC(=O)NO)cc23)c1`, the GI50 was 1.17 µM and the TGI was 6.1 µM. With `Cc1nnc(S(=O)(=O)c2ccc(N=Nc3c(N)nc(N)nc3N)cc2)s1` the TGI was > 100 µM. In the case of `O=c1n(CC2CO2)c(=O)n(CC2CO2)c(=O)n1CC1CO1` (centres undefined), the GI50 is reported as 13.1 µM and 25.7 µM and 11.9 µM and the TGI is reported as 78.3 µM and 90.6 µM and > 100 µM. In the case of `Cc1ccc(C(SCC(N)C(=O)O)(c2ccccc2)c2ccc(C)cc2)cc1` (centres undefined), the GI50 is reported as 0.367 µM and the TGI is reported as 23.9 µM. `COc1cc(Nc2cn[nH]c2-c2ccc(Cl)cc2)cc(OC)c1OC` was tested, and the GI50 was 4.35 µM and the TGI was 50 µM. `O=C(c1ccccc1)c1cc(Cl)ccc1OCCCCN1CCN(CCCCOc2ccc(Cl)cc2C(=O)c2ccccc2)CC1` was tested, and the GI50 was 2.1 µM and the TGI was 4.27 µM. With `CNCCNc1c2c(c(NCCNC)c3c(CN(C)C)c[nH]c13)C(=O)c1ccccc1C2=O` the GI50 was 5.7 µM and the TGI was 20.5 µM. `CC1OC2CC(=O)OC2C2=C1C(=O)c1c(O)cccc1C2=O` (centres undefined) showed a GI50 of 0.0314 µM and a TGI of 0.15 µM. `Oc1ccc(Cl)cc1Cc1cc(Cl)cc(Cl)c1O` gave a GI50 of 4.18 µM and a TGI of 23.5 µM. Compound `C=C(C=O)C1CCC2(C(=O)O)CCC3(C)C(CCC4C5(C)CCC(O)C(C)(C)C5CCC43C)C12` (centres undefined) has a GI50 of 1.65 µM and a TGI of 4.47 µM. `COc1ccc(N2C(=O)C(c3ccccc3)(c3ccccc3)C23C(=O)N(C)c2ccccc23)cc1` (centres undefined) was tested, and the GI50 was > 100 µM and the TGI was > 100 µM. `O=c1c2ccccc2[se]n1-c1cccnc1` gave a TGI of 52.8 µM.

Each compound was assayed on SW-620 colon (assay: NCI anticancer screen, dose series, 48 h).
Compound `COc1ccc2c(c1)C(C)Cc1c(Cl)ncnc1N2C` (centres undefined) has a GI50 of 377 nM and a TGI of 17.8 µM. With `COCCOc1cc(F)c2c(Nc3ccc(NC(=O)Cn4cc(C(C)C)nn4)cc3)ncnc2c1` the GI50 was > 100000 nM and the TGI was > 100 µM. For `C#Cc1cccc(Nc2ncnc3cc(OC)c(OCCCCCCC(=O)NO)cc23)c1`, the GI50 was 58 nM and the TGI was 0.319 µM. `Cc1nnc(S(=O)(=O)c2ccc(N=Nc3c(N)nc(N)nc3N)cc2)s1` was tested, and the TGI was > 100 µM. With `O=c1n(CC2CO2)c(=O)n(CC2CO2)c(=O)n1CC1CO1` (centres undefined) the GI50 was 26300 nM and 13200 nM and the TGI was 228 µM and > 100 µM. Work on `Cc1ccc(C(SCC(N)C(=O)O)(c2ccccc2)c2ccc(C)cc2)cc1` (centres undefined) yielded a GI50 of 153 nM and a TGI of 14.8 µM. In the case of `COc1cc(Nc2cn[nH]c2-c2ccc(Cl)cc2)cc(OC)c1OC`, the GI50 is reported as 3870 nM and the TGI is reported as 23.7 µM. For `O=C(c1ccccc1)c1cc(Cl)ccc1OCCCCN1CCN(CCCCOc2ccc(Cl)cc2C(=O)c2ccccc2)CC1`, the GI50 was 2920 nM and the TGI was 8.5 µM. `CNCCNc1c2c(c(NCCNC)c3c(CN(C)C)c[nH]c13)C(=O)c1ccccc1C2=O` showed a GI50 of 1310 nM and a TGI of 11 µM. `CC1OC2CC(=O)OC2C2=C1C(=O)c1c(O)cccc1C2=O` (centres undefined) gave a GI50 of 41.1 nM and a TGI of 0.154 µM. Work on `Oc1ccc(Cl)cc1Cc1cc(Cl)cc(Cl)c1O` yielded a GI50 of 5370 nM and a TGI of 19.9 µM. `C=C(C=O)C1CCC2(C(=O)O)CCC3(C)C(CCC4C5(C)CCC(O)C(C)(C)C5CCC43C)C12` (centres undefined) gave a GI50 of 1990 nM and a TGI of 5.07 µM. For `COc1ccc(N2C(=O)C(c3ccccc3)(c3ccccc3)C23C(=O)N(C)c2ccccc23)cc1` (centres undefined), the GI50 was > 100000 nM and the TGI was > 100 µM. `O=c1c2ccccc2[se]n1-c1cccnc1` was tested, and the TGI was 83.3 µM.

These compounds were tested on COLO 205 colon (assay: NCI anticancer screen, dose series, 48 h).
In the case of `COc1ccc2c(c1)C(C)Cc1c(Cl)ncnc1N2C` (centres undefined), the GI50 is reported as 261 nM and the TGI is reported as 0.777 µM. With `COCCOc1cc(F)c2c(Nc3ccc(NC(=O)Cn4cc(C(C)C)nn4)cc3)ncnc2c1` the GI50 was > 100000 nM and the TGI was > 100 µM. Work on `C#Cc1cccc(Nc2ncnc3cc(OC)c(OCCCCCCC(=O)NO)cc23)c1` yielded a GI50 of 157 nM and a TGI of 0.538 µM. For `Cc1nnc(S(=O)(=O)c2ccc(N=Nc3c(N)nc(N)nc3N)cc2)s1`, the TGI was > 100 µM. In the case of `O=c1n(CC2CO2)c(=O)n(CC2CO2)c(=O)n1CC1CO1` (centres undefined), the GI50 is reported as 25000 nM and 11100 nM and the TGI is reported as 78.4 µM and 52.2 µM and 25.5 µM. For `Cc1ccc(C(SCC(N)C(=O)O)(c2ccccc2)c2ccc(C)cc2)cc1` (centres undefined), the GI50 was 241 nM and the TGI was 0.732 µM. `COc1cc(Nc2cn[nH]c2-c2ccc(Cl)cc2)cc(OC)c1OC` showed a GI50 of 4390 nM and a TGI of 21.9 µM. In the case of `O=C(c1ccccc1)c1cc(Cl)ccc1OCCCCN1CCN(CCCCOc2ccc(Cl)cc2C(=O)c2ccccc2)CC1`, the GI50 is reported as 1950 nM and the TGI is reported as 4.78 µM. With `CNCCNc1c2c(c(NCCNC)c3c(CN(C)C)c[nH]c13)C(=O)c1ccccc1C2=O` the TGI was > 34.5 µM. `CC1OC2CC(=O)OC2C2=C1C(=O)c1c(O)cccc1C2=O` (centres undefined) was tested, and the GI50 was 17.7 nM and the TGI was 0.0405 µM. For `Oc1ccc(Cl)cc1Cc1cc(Cl)cc(Cl)c1O`, the GI50 was 19500 nM and the TGI was 36.6 µM. Work on `C=C(C=O)C1CCC2(C(=O)O)CCC3(C)C(CCC4C5(C)CCC(O)C(C)(C)C5CCC43C)C12` (centres undefined) yielded a GI50 of 2640 nM and a TGI of 6.18 µM. For `COc1ccc(N2C(=O)C(c3ccccc3)(c3ccccc3)C23C(=O)N(C)c2ccccc23)cc1` (centres undefined), the GI50 was > 100000 nM and the TGI was > 100 µM. `O=c1c2ccccc2[se]n1-c1cccnc1` was tested, and the TGI was 45.1 µM.
